Test results reported in PubChem BioAssay (NCI).
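96-well plates; 48 h exposure; 5 concentrations. Endpoints by linear interpolation between flanking doses. Not reached: highest tested concentration assigned. Definition used: TGI = concentration required for complete inhibition of growth.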

Key:
Experiment in all cases: NCI-60 cell line screen, 48 h
RXF 393 renal = test system: RXF 393 renal
MDA-N = test system: MDA-N
NCI-H226 lung = test system: NCI-H226 lung
MDA-MB-231 breast = test system: MDA-MB-231 breast
UACC-62 melanoma = test system: UACC-62 melanoma
U251 CNS = test system: U251 CNS
UACC-257 melanoma = test system: UACC-257 melanoma
ACHN renal = test system: ACHN renal
SF-268 CNS = test system: SF-268 CNS
HL-60(TB) leukemia = test system: HL-60(TB) leukemia
HS 578T breast = test system: HS 578T breast
SR leukemia = test system: SR leukemia
UO-31 renal = test system: UO-31 renal
HCT-116 colon = test system: HCT-116 colon
OVCAR-5 ovarian = test system: OVCAR-5 ovarian
M14 melanoma = test system: M14 melanoma
HT29 colon = test system: HT29 colon
SF-295 CNS = test system: SF-295 CNS
SF-539 CNS = test system: SF-539 CNS
TK-10 renal = test system: TK-10 renal
HOP-62 NSCLC = test system: HOP-62 NSCLC
SK-MEL-28 melanoma = test system: SK-MEL-28 melanoma
SNB-19 CNS = test system: SNB-19 CNS
RPMI-8226 leukemia = test system: RPMI-8226 leukemia
SK-MEL-2 melanoma = test system: SK-MEL-2 melanoma
HOP-92 NSCLC = test system: HOP-92 NSCLC
NCI-H23 lung = test system: NCI-H23 lung
MDA-MB-435 = test system: MDA-MB-435
T-47D breast = test system: T-47D breast
SN12C renal = test system: SN12C renal
SNB-75 CNS = test system: SNB-75 CNS
A549 NSCLC = test system: A549 NSCLC
PC-3 prostate = test system: PC-3 prostate
OVCAR-8 ovarian = test system: OVCAR-8 ovarian
NCI/ADR-RES ovarian = test system: NCI/ADR-RES ovarian
CCRF-CEM leukemia = test system: CCRF-CEM leukemia
BT-549 breast = test system: BT-549 breast
IGROV1 ovarian = test system: IGROV1 ovarian
OVCAR-4 ovarian = test system: OVCAR-4 ovarian
SK-OV-3 ovarian = test system: SK-OV-3 ovarian
CAKI-1 renal = test system: CAKI-1 renal
MCF7 breast = test system: MCF7 breast
KM12 colon = test system: KM12 colon
NCI-H460 lung = test system: NCI-H460 lung
SK-MEL-5 melanoma = test system: SK-MEL-5 melanoma
EKVX NSCLC = test system: EKVX NSCLC
LOX IMVI melanoma = test system: LOX IMVI melanoma
OVCAR-3 ovarian = test system: OVCAR-3 ovarian
DU-145 prostate = test system: DU-145 prostate
HCC-2998 colon = test system: HCC-2998 colon
MOLT-4 leukemia = test system: MOLT-4 leukemia
COLO 205 colon = test system: COLO 205 colon
K-562 leukemia = test system: K-562 leukemia
SW-620 colon = test system: SW-620 colon
HCT-15 colon = test system: HCT-15 colon
NCI-H522 lung = test system: NCI-H522 lung
786-0 renal = test system: 786-0 renal
A498 renal = test system: A498 renal

COc1cc(CCCl)c(CC2=NCCc3cc(OC)c(OC)cc32)cc1OC
TGI (RXF 393 renal): > 100 µM
TGI (MDA-N): > 100 µM
TGI (NCI-H226 lung): > 100 µM
TGI (MDA-MB-231 breast): > 100 µM
TGI (UACC-62 melanoma): > 100 µM
TGI (U251 CNS): > 100 µM
TGI (UACC-257 melanoma): > 100 µM
TGI (ACHN renal): > 100 µM
TGI (SF-268 CNS): > 100 µM
TGI (HL-60(TB) leukemia): > 100 µM
TGI (HS 578T breast): 80.7 µM
TGI (SR leukemia): > 100 µM
TGI (UO-31 renal): > 100 µM
TGI (HCT-116 colon): > 100 µM
TGI (OVCAR-5 ovarian): > 100 µM
TGI (M14 melanoma): > 100 µM
TGI (HT29 colon): > 100 µM
TGI (SF-295 CNS): > 100 µM
TGI (SF-539 CNS): 57.7 µM
TGI (TK-10 renal): > 100 µM
TGI (HOP-62 NSCLC): > 100 µM
TGI (SK-MEL-28 melanoma): > 100 µM
TGI (SNB-19 CNS): > 100 µM
TGI (RPMI-8226 leukemia): > 100 µM
TGI (SK-MEL-2 melanoma): > 100 µM
TGI (HOP-92 NSCLC): > 100 µM
TGI (NCI-H23 lung): > 100 µM
TGI (MDA-MB-435): > 100 µM
TGI (T-47D breast): > 100 µM
TGI (SN12C renal): > 100 µM
TGI (SNB-75 CNS): > 100 µM
TGI (A549 NSCLC): > 100 µM
TGI (PC-3 prostate): > 100 µM
TGI (OVCAR-8 ovarian): > 100 µM
TGI (NCI/ADR-RES ovarian): > 100 µM
TGI (CCRF-CEM leukemia): > 100 µM
TGI (BT-549 breast): > 100 µM
TGI (IGROV1 ovarian): > 100 µM
TGI (OVCAR-4 ovarian): > 100 µM
TGI (SK-OV-3 ovarian): > 100 µM
TGI (CAKI-1 renal): > 100 µM
TGI (MCF7 breast): > 100 µM
TGI (KM12 colon): > 100 µM
TGI (NCI-H460 lung): > 100 µM
TGI (SK-MEL-5 melanoma): > 100 µM
TGI (EKVX NSCLC): > 100 µM
TGI (LOX IMVI melanoma): > 100 µM
TGI (OVCAR-3 ovarian): > 100 µM
TGI (DU-145 prostate): > 100 µM
TGI (HCC-2998 colon): > 100 µM
TGI (MOLT-4 leukemia): > 100 µM
TGI (COLO 205 colon): > 100 µM
TGI (K-562 leukemia): > 100 µM
TGI (SW-620 colon): > 100 µM

COC(=O)C(CCC1CC(OC)N(C(=O)OCc2ccccc2)C1)N=Cc1ccccc1 (configuration not stated)
TGI (RXF 393 renal): > 100 µM
TGI (MDA-N): > 100 µM
TGI (NCI-H226 lung): > 100 µM
TGI (MDA-MB-231 breast): > 100 µM
TGI (UACC-62 melanoma): > 100 µM
TGI (U251 CNS): > 100 µM
TGI (UACC-257 melanoma): > 100 µM
TGI (ACHN renal): > 100 µM
TGI (SF-268 CNS): > 100 µM
TGI (HL-60(TB) leukemia): > 100 µM
TGI (HS 578T breast): > 100 µM
TGI (SR leukemia): > 100 µM
TGI (UO-31 renal): > 100 µM
TGI (HCT-116 colon): > 100 µM
TGI (OVCAR-5 ovarian): > 100 µM
TGI (M14 melanoma): > 100 µM
TGI (HT29 colon): > 100 µM
TGI (SF-295 CNS): > 100 µM
TGI (SF-539 CNS): > 100 µM
TGI (TK-10 renal): > 100 µM
TGI (HOP-62 NSCLC): > 100 µM
TGI (SK-MEL-28 melanoma): > 100 µM
TGI (SNB-19 CNS): > 100 µM
TGI (RPMI-8226 leukemia): 91.7 µM
TGI (SK-MEL-2 melanoma): 78.8 µM
TGI (HOP-92 NSCLC): > 100 µM
TGI (NCI-H23 lung): > 100 µM
TGI (MDA-MB-435): > 100 µM
TGI (HCT-15 colon): > 100 µM
TGI (T-47D breast): > 100 µM
TGI (SN12C renal): > 100 µM
TGI (SNB-75 CNS): > 100 µM
TGI (A549 NSCLC): > 100 µM
TGI (PC-3 prostate): > 100 µM
TGI (NCI-H522 lung): 72.9 µM
TGI (OVCAR-8 ovarian): > 100 µM
TGI (NCI/ADR-RES ovarian): > 100 µM
TGI (786-0 renal): > 100 µM
TGI (CCRF-CEM leukemia): > 100 µM
TGI (BT-549 breast): > 100 µM
TGI (IGROV1 ovarian): > 100 µM
TGI (OVCAR-4 ovarian): > 100 µM
TGI (SK-OV-3 ovarian): > 100 µM
TGI (CAKI-1 renal): > 100 µM
TGI (MCF7 breast): > 100 µM
TGI (KM12 colon): > 100 µM
TGI (A498 renal): > 100 µM
TGI (NCI-H460 lung): > 100 µM
TGI (SK-MEL-5 melanoma): 83.9 µM
TGI (EKVX NSCLC): > 100 µM
TGI (LOX IMVI melanoma): > 100 µM
TGI (OVCAR-3 ovarian): > 100 µM
TGI (DU-145 prostate): > 100 µM
TGI (HCC-2998 colon): > 100 µM
TGI (MOLT-4 leukemia): > 100 µM
TGI (COLO 205 colon): 78.7 µM
TGI (K-562 leukemia): > 100 µM
TGI (SW-620 colon): > 100 µM
